Results on one compound are retold here after patent US20040142864A1, “Crystal structure of PIM-1 kinase” (Plexxikon, Inc., priority 2002, published 2004).

This assay has as its target PIM-1 (Homo sapiens, UniProt P11309). Put plainly: PY20 AlphaScreen kit kinase inhibition assay. (In general: In Alpha technology, singlet oxygen from a donor bead excites a nearby acceptor bead.)

pIC50: −log10 of the molar value.

Chain of PIM-1 (P11309 whole entry): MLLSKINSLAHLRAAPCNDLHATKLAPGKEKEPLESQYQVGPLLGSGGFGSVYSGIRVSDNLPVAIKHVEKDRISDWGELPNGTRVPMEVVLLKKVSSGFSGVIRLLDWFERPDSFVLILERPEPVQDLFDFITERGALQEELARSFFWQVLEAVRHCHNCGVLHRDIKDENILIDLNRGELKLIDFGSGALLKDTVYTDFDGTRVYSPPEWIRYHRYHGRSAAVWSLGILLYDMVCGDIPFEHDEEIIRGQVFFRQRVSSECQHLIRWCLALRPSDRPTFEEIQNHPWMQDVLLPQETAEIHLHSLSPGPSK

With `CSc1cccc(Nc2ncc3cc(-c4c(Cl)cccc4Cl)c(=O)n(C)c3n2)c1`, the pIC50 (in general, the IC50 on a negative log10 scale, so that one unit is a factor of ten) was 8.00.
